Where two headings read alike, the source gives them in different places.
What was measured:
ɑ1AAR [1] = molecular target: T1, ɑ1AAR (Homo sapiens, UniProt P35348); test: α1AAR ligand screening, plasma membrane–ligand BRET (α1AAR with GLuc–PM); settings: for inhibition at 10 µM: 20 min
GLuc–ɑ1AAR = molecular target: T2, GLuc–ɑ1AAR (Homo sapiens, UniProt P35348); test: Receptor–ligand BRET equilibrium binding, GLuc–α1AAR in HEK 293T cells
T2 construct: Gaussia luciferase signal peptide (N); […]; expressed in transfected cells; host or cells: HEK 293T
T2 sequence (P35348 whole entry): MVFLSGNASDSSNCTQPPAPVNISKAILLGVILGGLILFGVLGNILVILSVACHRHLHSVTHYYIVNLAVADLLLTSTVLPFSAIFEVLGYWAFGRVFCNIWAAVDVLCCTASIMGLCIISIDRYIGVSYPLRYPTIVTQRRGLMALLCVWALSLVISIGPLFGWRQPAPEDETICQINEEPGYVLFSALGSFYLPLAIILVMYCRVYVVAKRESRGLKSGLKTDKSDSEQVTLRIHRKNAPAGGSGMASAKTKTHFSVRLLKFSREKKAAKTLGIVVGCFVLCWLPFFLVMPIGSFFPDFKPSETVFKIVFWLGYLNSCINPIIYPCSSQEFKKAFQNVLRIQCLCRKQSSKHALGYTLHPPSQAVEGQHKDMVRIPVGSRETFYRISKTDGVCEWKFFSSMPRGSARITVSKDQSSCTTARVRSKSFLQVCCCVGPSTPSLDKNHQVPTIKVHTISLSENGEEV

ɑ1AAR [2] = molecular target: T1, ɑ1AAR; test: PM–ligand BRET equilibrium binding, α1AAR with GLuc–PM; parameters: expressed in transfected cells; host or cells: HEK 293T
AT1R [3] = molecular target: T3, AT1R (Rattus norvegicus, UniProt P25095); test: PM–ligand BRET equilibrium binding, untagged AT1R with GLuc–PM; settings: two site competitive fit
T3 construct: expressed in transfected cells; host or cells: HEK 293T
T3 sequence (P25095 1-359): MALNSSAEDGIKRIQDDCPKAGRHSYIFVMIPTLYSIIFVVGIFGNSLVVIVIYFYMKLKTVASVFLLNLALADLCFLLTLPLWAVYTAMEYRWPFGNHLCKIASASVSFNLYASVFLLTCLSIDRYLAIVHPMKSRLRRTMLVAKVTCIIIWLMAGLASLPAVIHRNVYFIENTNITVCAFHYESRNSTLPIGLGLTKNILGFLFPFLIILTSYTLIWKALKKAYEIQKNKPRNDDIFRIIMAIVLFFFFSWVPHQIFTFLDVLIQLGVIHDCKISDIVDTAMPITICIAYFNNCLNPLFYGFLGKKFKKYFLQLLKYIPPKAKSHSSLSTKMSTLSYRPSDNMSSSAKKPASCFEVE

NanoLuc–AT1R = molecular target: T4, NanoLuc–AT1R (Rattus norvegicus, UniProt P25095); test: Receptor–ligand BRET equilibrium binding, NanoLuc–AT1R in HEK 293T cells; settings: 1 μM TAMRA–AngII, two site competitive fit, 2 h room temperature
T4 construct: secretion signal peptide of interleukin-6 (N); expressed in transfected cells; host or cells: HEK 293T
T4 sequence (P25095 1-359): T3 sequence (P25095 1-359)

GLuc–AT1R [4] = molecular target: T5, GLuc–AT1R (Rattus norvegicus, UniProt P25095); test: Receptor–ligand BRET equilibrium binding, GLuc–AT1R in HEK 293T cells; settings: 1 μM TAMRA–AngII, two site competitive fit, 2 h room temperature
T5 construct: Gaussia luciferase signal peptide (N); expressed in transfected cells; host or cells: HEK 293T
T5 sequence (P25095 1-359): T3 sequence (P25095 1-359)

AT1R [5] = molecular target: T3, AT1R; test: PM–ligand BRET equilibrium binding, untagged AT1R with NanoLuc–PM; settings: 1 μM TAMRA–AngII, two site competitive fit
GLuc–AT1R [6] = molecular target: T5, GLuc–AT1R; test: Kinetic receptor–ligand BRET, GLuc–AT1R; type: binding
AT1R [7] = molecular target: T3, AT1R; test: Kinetic PM–ligand BRET, AT1R with GLuc–PM; type: binding
[8] = molecular target: AT1 angiotensin receptor (AT1R), untagged, rat (rat) (UniProt P25095); test: FRET or BRET; PM‒ligand (bystander) BRET with GLuc‒PM, equilibrium competition: live HEK 293T cells with unmodified receptor, GLuc‒PM and DN-Dyn; a fixed fluorescent ligand (1 μM TAMRA‒AngII, 300 ng/ml biotinylated EGF on Alexa Fluor 488 streptavidin, or 100 μg/ml Alexa Fluor 488 human transferrin) and increasing unlabeled ligand, 2 h at room temperature
[9] = molecular target: AT2 angiotensin receptor (AT2R), untagged, rat (rat) (UniProt P35351); test: as above
AT2 angiotensin receptor (AT2R), untagged, rat (rat), sequence (P35351 whole entry): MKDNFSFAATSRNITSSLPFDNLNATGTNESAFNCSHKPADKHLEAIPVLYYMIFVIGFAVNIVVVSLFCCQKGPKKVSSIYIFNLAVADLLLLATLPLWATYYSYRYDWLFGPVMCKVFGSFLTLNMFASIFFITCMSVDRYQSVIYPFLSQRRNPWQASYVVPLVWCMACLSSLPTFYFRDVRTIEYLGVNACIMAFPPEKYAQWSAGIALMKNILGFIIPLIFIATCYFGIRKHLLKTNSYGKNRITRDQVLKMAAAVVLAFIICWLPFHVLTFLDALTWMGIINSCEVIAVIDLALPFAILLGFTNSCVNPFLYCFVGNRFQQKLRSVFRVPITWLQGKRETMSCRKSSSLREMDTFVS

[10] = read-out: plasma membrane-ligand BRET decrease (%) Replicate1
[11] = read-out: plasma membrane-ligand BRET decrease (%) Replicate2
[12] = 375 nM BODIPY FL–prazosin, one site competitive fit, receptor–ligand BRET
[13] = 375 nM BODIPY FL–prazosin, one site competitive fit, PM–ligand BRET

T1 sequence (P35348 whole entry): as the sequence (P35348 whole entry) above

| Compound | inhibition at 10 µM (ɑ1AAR [1]; [10]) | inhibition at 10 µM (ɑ1AAR [1]; [11]) | other results |
| --- | --- | --- | --- |
| Cc1cc(C)c(CNC(=O)c2ccc(NC(=O)C3CC3)cc2)c(=O)[nH]1 [BCC0003661] | -7.67% | -9.71% | – |
| Cc1cc(C(=O)NCc2ccc(F)cc2)on1 [BCC0004615] | -12.9% | -13.9% | – |
| CC(NC(=O)C1CC1C)c1ccc(-n2cncn2)cc1 (stereo not shown) [BCC0008909] | 4.15% | -0.3% | – |
| O=C(/C=C/c1nc2ccccc2o1)N1CCC(c2c[nH]c3ccccc23)CC1 [BCC0010913, (E)-3-(1,3-Benzoxazol-2-yl)-1-[4-(1H-indol-3-yl)piperidin-1-yl]prop-2-en-1-one] | – | – | Ki (GLuc–ɑ1AAR; [12]): 2.75 µM; Ki (ɑ1AAR [2]; [13]): 1.84 µM |
| Cc1ccnc(SCc2nc3ccccn3c2Br)n1 [BCC0020406] | -10.3% | -12% | – |
| O=C(CN1CCN(CC(=O)Nc2cccc([N+](=O)[O-])c2)CC1)Nc1cccc([N+](=O)[O-])c1 [BCC0036095] | -1.4% | 3.14% | – |
| COc1ccc(C(=O)NCCN2CCN(C(=O)c3ccc(OC)c(OC)c3)CC2)cc1OC [BCC0048283] | 0.72% | 3.82% | – |
| CCCN1CCC(N2CCN(S(=O)(=O)c3ccc(C)cc3)CC2)CC1 [BCC0058402] | -0.92% | 2.58% | – |
| CCC(=O)c1ccc(OCCN2CCOCC2)cc1 [BCC0059938] | -1.24% | -1.63% | – |
| O=C(CN1CCC(n2nnc3cc(F)ccc32)CC1)N1CCc2ccccc2C1 [BCC0061678, 1-(3,4-Dihydro-1H-isoquinolin-2-yl)-2-[4-(5-fluorobenzotriazol-1-yl)piperidin-1-yl]ethanone] | – | – | Ki (GLuc–ɑ1AAR; [12]): 0.274 µM; Ki (ɑ1AAR [2]; [13]): 0.18 µM |
| CN1CCN(C(=O)c2ccc(-n3nc(C(F)(F)F)c4c3CCCC4)cc2)CC1 [BCC0063211] | 3.59% | 4.59% | – |
| C=CCOc1ccc2[nH]c(C)c(C(=O)OCC)c2c1 [BCC0065386] | 4.81% | 1.12% | – |
| O=C(c1noc2c1COc1ccccc1-2)N1CCN(c2cccc(Cl)c2)CC1 [BCC0066678] | -4.28% | -2.43% | – |
| CN1CCCCC1C#CC(O)(c1ccccc1)c1ccccc1 (stereo not shown) [BCC0068132] | – | – | plasma membrane-ligand BRET decrease (%) Replicate1 (ɑ1AAR [1]): -4,21%; plasma membrane-ligand BRET decrease (%) Replicate2 (ɑ1AAR [1]): -5,19% |
| COc1ccc(-c2nnc(SCC(=O)Nc3cc(C)cc(C)c3)[nH]2)cc1 [BCC0072526, N-(3,5-Dimethylphenyl)-2-[[5-(4-methoxyphenyl)-1H-1,2,4-triazol-3-yl]sulfanyl]acetamide] | – | – | Ki (GLuc–ɑ1AAR; [12]): 0.215 µM; Ki (ɑ1AAR [2]; [13]): 0.0861 µM |
| CN(C)CCCNCc1ccc2c(c1)OCO2 [BCC0076253] | -1.24% | -0.43% | – |
| O=C(NCCN1CCN(c2ccccc2)CC1)Nc1ccc2c(c1)OCCO2 [BCC0079473, 1-(2,3-Dihydro-1,4-benzodioxin-6-yl)-3-[2-(4-phenylpiperazin-1-yl)ethyl]urea] | – | – | Ki (GLuc–ɑ1AAR; [12]): 0.248 µM; Ki (ɑ1AAR [2]; [13]): 0.122 µM |
| CSc1ccc(CNC2CN3CCC2CC3)cc1 (stereo not shown) [BCC0080607] | -0.99% | 2.8% | – |
| COc1ccccc1NS(=O)(=O)c1ccc2c(c1)SC(C)C(=O)N2 (stereo not shown) [BCC0083047] | -3.44% | -2.12% | – |
| FC(F)(F)c1cccc(OCCn2cncn2)c1 [BCC0089082] | 2.21% | 4.76% | – |
| O=C(CN1CCC(N2CCCCC2)CC1)N1CCC2(CC1)OCCO2 [BCC0092904] | -4.89% | -1.52% | – |
| O=C(Cn1nnc2ccccc21)N1CCC(n2c(=O)oc3ccccc32)CC1 [BCC0101075] | -4.37% | -10.8% | – |
| Cc1cc(S(=O)(=O)NCc2ccccc2)ccc1OCC(=O)N1CCN(C)CC1 [BCC0113627] | 1.05% | -3.63% | – |
| CC(C)(C)Nc1nnc(Sc2ncnc3sccc23)s1 [BCC0117056] | -11.6% | -0.3% | – |
| CS(=O)(=O)Nc1c(O)ccc2c1CCCC2C1=NCCN1 (stereo not shown) [Compound A61603, A61603, reference compound] | -74% | -76% | – |
| CC[C@H](C)[C@H](NC(=O)[C@@H]1CCCN1C(=O)[C@H](Cc1c[nH]cn1)NC(=O)[C@@H](NC(=O)[C@@H](NC(=O)[C@@H](NC(=O)[C@H](CCCNC(=N)N)NC(=O)CNC)C(C)C)[C@@H](C)CC)[C@@H](C)CC)C(=O)O [SII, [Sar^1,Ile^4,Ile^8]-angiotensin II] | – | – | IC50 (AT1R [3]; read-out: IC50_Hi, agonist binding, GLuc–PM (Fig. 2M)): 1.28 µM |
| CCOc1nc2cccc(C(=O)O)c2n1Cc1ccc(-c2ccccc2-c2nnn[nH]2)cc1 [candesartan] | – | – | IC50 (NanoLuc–AT1R; read-out: IC50_Hi): 0.00052 µM; IC50 (NanoLuc–AT1R; read-out: IC50_Lo): 0.001 µM; IC50 (GLuc–AT1R [4]; read-out: IC50_Hi): 0.000207 µM; IC50 (GLuc–AT1R [4]; read-out: IC50_Lo): 0.0013 µM; IC50 (AT1R [5]; read-out: IC50_Hi): 0.00129 µM; IC50 (AT1R [5]; read-out: IC50_Lo): 0.0196 µM; IC50 (AT1R [3]; 1 μM TAMRA–AngII, GLuc–PM, read-out: IC50_Hi): 0.00124 µM; IC50 (AT1R [3]; 1 μM TAMRA–AngII, GLuc–PM, read-out: IC50_Lo): 248 µM; koff (GLuc–AT1R [6]): 0.00123 s⁻¹; kon (GLuc–AT1R [6]): 540000 M⁻¹ s⁻¹; koff (AT1R [7]): 0.000833 s⁻¹; kon (AT1R [7]): 278000 M⁻¹ s⁻¹ |
| COc1ccccc1OCCNCC(O)COc1cccc2[nH]c3ccccc3c12 (stereo not shown) [carvedilol, reference compound] | – | – | Ki (GLuc–ɑ1AAR): 0.0627 µM; Ki (ɑ1AAR [2]): 0.0438 µM |
| [Sar^1,Ile^4,Ile^8]-angiotensin II (SII) (peptide) | – | – | IC50 of the high-affinity site (IC50 Hi) [8]: 1.28 µM |
| angiotensin II (AngII) (peptide) | – | – | IC50 [9]: 0.479 µM |

— publication PMC7950324, “A general method for quantifying ligand binding to unmodified receptors using Gaussia luciferase” (The Journal of Biological Chemistry, 2021)
